For six compounds, growth, % of control results are on record in ChEMBL document CHEMBL3792365, “Dioxol and dihydrodioxin analogs of 2- and 3-phenylacetonitriles as potent anti-cancer agents with nanomolar activity against a variety of human cancer cells” (2016).

Type in all cases: functional
A short description of assay [1]: Growth inhibition of human OVCAR3 cells at 10 uM after 48 hrs by sulforhodamine B assay. Particulars: OVCAR-3, 48 h, values are per cent of control. For orientation: In SRB staining, fixed cells bind dye roughly in proportion to their protein.
Another assay has as its system NCI-H23. Nature of the assay: Growth inhibition of human NCI-H23 cells at 10 uM after 48 hrs by sulforhodamine B assay. Particulars: NCI-H23, 48 h, values are per cent of control.
The next assay relates to U-251. Nature of the assay: Growth inhibition of human U251 cells at 10 uM after 48 hrs by sulforhodamine B assay. The conditions noted are these: U-251, 48 h, values are per cent of control.
A short description of assay [2]: Growth inhibition of human HOP92 cells at 10 uM after 48 hrs by sulforhodamine B assay. The conditions noted are these: HOP-92, 48 h, values are per cent of control.
A further assay concerns A498. As to the kind of experiment: Growth inhibition of human A498 cells at 10 uM after 48 hrs by sulforhodamine B assay. The conditions noted are these: A498, 48 h, values are per cent of control.
Assay [3] can be described thus: Growth inhibition of human UO31 cells at 10 uM after 48 hrs by sulforhodamine B assay. The conditions noted are these: UO-31, 48 h, values are per cent of control.
In the next assay the test system is CCRF-CEM. As to the kind of experiment: Growth inhibition of human CCRF-CEM cells at 10 uM after 48 hrs by sulforhodamine B assay. The conditions noted are these: values are per cent of control.
Assay [4] can be described thus: Growth inhibition of human Hs 578T cells at 10 uM after 48 hrs by sulforhodamine B assay. Particulars: values are per cent of control.
Assay [5] in a line: Growth inhibition of human RPMI8226 cells at 10 uM after 48 hrs by sulforhodamine B assay. Particulars: RPMI-8226, 48 h, values are per cent of control.
Assay [6] in a line: Growth inhibition of human OVCAR8 cells at 10 uM after 48 hrs by sulforhodamine B assay. Particulars: OVCAR-8, 48 h, values are per cent of control.
Assay [7] is described as follows: Growth inhibition of human LOXIMVI cells at 10 uM after 48 hrs by sulforhodamine B assay. The conditions noted are these: LOX IMVI, values are per cent of control.
Assay [8] in a line: Growth inhibition of human HL-60(TB) cells at 10 uM after 48 hrs by sulforhodamine B assay. Particulars: HL-60, 48 h, values are per cent of control.
The nature of assay [9]: Growth inhibition of human MOLT4 cells at 10 uM after 48 hrs by sulforhodamine B assay. Particulars: MOLT-4, 48 h, values are per cent of control.
Assay [10] can be described thus: Growth inhibition of human UACC257 cells at 10 uM after 48 hrs by sulforhodamine B assay. Particulars: UACC-257, 48 h, values are per cent of control.
For the next assay, the system named is Malme-3M. Nature of the assay: Growth inhibition of human MALME-3M cells at 10 uM after 48 hrs by sulforhodamine B assay. Particulars: values are per cent of control.
Assay [11] can be described thus: Growth inhibition of human OVCAR5 cells at 10 uM after 48 hrs by sulforhodamine B assay. The conditions noted are these: OVCAR-5, 48 h, values are per cent of control.
Assay [12] in a line: Growth inhibition of human SF295 cells at 10 uM after 48 hrs by sulforhodamine B assay. The conditions noted are these: SF-295, 48 h, values are per cent of control.
A short description of assay [13]: Growth inhibition of human PC3 cells at 10 uM after 48 hrs by sulforhodamine B assay. The conditions noted are these: PC-3, 48 h, values are per cent of control.
The test system of another assay is MCF7. As to the kind of experiment: Growth inhibition of human MCF7 cells at 10 uM after 48 hrs by sulforhodamine B assay. The conditions noted are these: MCF7, 48 h, values are per cent of control.

As for `N#C/C(=C\c1cc(F)cc(F)c1)c1ccc2c(c1)OCO2`, the growth, % of control at 10 µM in [1] came out at 109%; in the assay on NCI-H23, 103%; in the assay on U-251 it was 108%; in [2], 125%; in the assay on A498 it was 111%; in assay [3] it was 104%. The growth, % of control at 10 µM in the assay on CCRF-CEM is 97.7%; in assay [4], 122%; in assay [5], 94.7%; in [6], 96.7%; in assay [7], 105%; in assay [8], 108%. Moreover, the growth, % of control at 10 µM is 83.1% in assay [9]; 104% in assay [10]; 116% in the assay on Malme-3M; 103% in [11]; 98.5% in assay [12]; 101% in [13]. Moreover, in the assay on MCF7, the growth, % of control at 10 µM was determined as 88.4%.

As to `N#C/C(=C\c1cc(Br)cc(Br)c1)c1ccc2c(c1)OCO2`, the growth, % of control at 10 µM in assay [1] came to 103%; in the assay with NCI-H23, 91.5%; in the assay on U-251 it was 99.9%; in [2], 113%; in the assay with A498, 90.4%; in assay [3], 76.5%. Besides, the growth, % of control at 10 µM in the assay with CCRF-CEM amounted to 75.4%; in [4], 112%; in assay [5], 76.6%; in [6], 108%; in assay [7] it was 97.1%; in assay [8], 62.9%. Besides, the growth, % of control at 10 µM in [9] came out at 66.6%; in assay [10] it was 100%; with Malme-3M, 84%; in assay [11], 100%; in assay [12] it was 96.4%; in assay [13], 89.2%. Moreover, the growth, % of control at 10 µM with MCF7 amounted to 82.3%.

`N#C/C(=C\c1ccc(Cl)cc1Cl)c1ccc2c(c1)OCO2`: the growth, % of control at 10 µM was 98.4% in assay [1]; 96.3% in the assay with NCI-H23; 91.1% with U-251; 99.9% in assay [2]; 101% in the assay on A498; 75.1% in [3]. In addition, the growth, % of control at 10 µM was found to be 93.3% with CCRF-CEM; 135% in assay [4]; 84.6% in [5]; 104% in assay [6]; 103% in assay [7]; 87.3% in assay [8]. The growth, % of control at 10 µM in [9] was found to be 79.2%; in assay [10] it was 93.8%; with Malme-3M, 76.4%; in assay [11] it was 106%; in [12], 97.5%; in assay [13], 93.4%. The same compound displayed a growth, % of control at 10 µM in the assay on MCF7 of 110%.

With `N#C/C(=C\c1ccc2c(c1)OCO2)c1ccc2c(c1)OCO2`, the growth, % of control at 10 µM in assay [1] was found to be 71.7%; with NCI-H23 it was 83.2%; in the assay on U-251, 77.2%; in assay [2], 94.2%; in the assay on A498 it was 73.7%; in assay [3], 86.7%. Also, the growth, % of control at 10 µM with CCRF-CEM was 73.2%; in [4], 89.7%; in assay [5], 75.2%; in assay [6], 83.8%; in assay [7] it was 65.1%; in assay [8] it was 57.9%. Further, the growth, % of control at 10 µM in assay [9] was found to be 67.7%; in assay [10], 80.2%; in the assay on Malme-3M, 69%; in assay [11] it was 97.9%; in [12] it was 76.5%; in [13], 70.2%. This compound gave a growth, % of control at 10 µM with MCF7 of 23.9%.

For the compound `COc1ccc(/C=C(\C#N)c2ccc3c(c2)OCO3)cn1`, the growth, % of control at 10 µM in assay [1] worked out at 100%; with NCI-H23, 93.7%; with U-251, 84.5%; in assay [2] it was 64.9%; with A498, 70.8%; in [3] it was 82.3%. Also, the growth, % of control at 10 µM in the assay on CCRF-CEM was found to be 87.7%; in [4] it was 101%; in assay [5] it was 73.2%; in assay [6], 90.1%; in assay [7], 95.6%; in assay [8] it was 70.8%. Further, the growth, % of control at 10 µM in [9] was determined as 71.5%; in assay [10] it was 89.4%; in the assay on Malme-3M, 90.6%; in assay [11], 95%; in [12], 89.3%; in assay [13], 77.9%. The compound also came in with a growth, % of control at 10 µM in the assay on MCF7 of 83.5%.

Turning to `COc1ccc(/C=C(\C#N)c2ccc3c(c2)OCO3)cc1OC`, the growth, % of control at 10 µM was 109% in assay [1]; 97.1% with NCI-H23; 102% with U-251; 110% in assay [2]; 96.5% with A498; 88% in assay [3]. For the same compound, the growth, % of control at 10 µM in the assay on CCRF-CEM came out at 89.4%; in [4], 114%; in assay [5] it was 96.9%; in assay [6], 104%; in [7], 101%; in assay [8], 72%. Further, the growth, % of control at 10 µM in assay [9] was 85.2%; in [10] it was 118%; in the assay on Malme-3M, 103%; in assay [11], 104%; in assay [12], 105%; in assay [13], 100%. Besides, the growth, % of control at 10 µM with MCF7 is 87.2%.
